Data as given in ChEMBL document CHEMBL4130423, “Synthesis, in vitro β-glucuronidase inhibitory potential and molecular docking studies of quinolines” (Eur J Med Chem, 2017).

Molecular target: T1, Beta-glucuronidase (Bos taurus, UniProt A3KMY8)
T1 sequence (A3KMY8 whole entry): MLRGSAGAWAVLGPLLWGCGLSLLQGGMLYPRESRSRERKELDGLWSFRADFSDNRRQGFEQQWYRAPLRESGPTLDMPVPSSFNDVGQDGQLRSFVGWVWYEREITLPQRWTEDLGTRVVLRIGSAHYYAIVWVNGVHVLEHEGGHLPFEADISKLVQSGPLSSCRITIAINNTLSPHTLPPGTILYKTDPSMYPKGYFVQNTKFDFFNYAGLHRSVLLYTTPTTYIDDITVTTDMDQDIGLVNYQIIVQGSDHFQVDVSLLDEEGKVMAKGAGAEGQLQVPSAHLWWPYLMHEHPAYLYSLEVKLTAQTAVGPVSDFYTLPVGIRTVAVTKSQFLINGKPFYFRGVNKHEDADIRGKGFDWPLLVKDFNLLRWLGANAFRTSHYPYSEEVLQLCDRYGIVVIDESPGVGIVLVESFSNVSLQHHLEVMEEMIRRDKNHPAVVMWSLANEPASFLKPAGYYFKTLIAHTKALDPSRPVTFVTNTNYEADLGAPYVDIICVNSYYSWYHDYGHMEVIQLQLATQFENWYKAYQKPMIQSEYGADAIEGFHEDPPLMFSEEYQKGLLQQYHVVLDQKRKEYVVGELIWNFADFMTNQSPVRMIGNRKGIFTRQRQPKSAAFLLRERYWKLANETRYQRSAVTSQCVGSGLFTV
Assay: Inhibition of bovine liver beta-glucuronidase using p-nitrophenyl-beta-D-glucuronide as substrate preincubated for 30 mins followed by substrate addition by spectrophotometric analysis

Row | Structure (SMILES) | IC50
1 | O=S(=O)(Oc1cccc2cccnc12)c1ccc(Cl)cc1Cl | 9.7 µM
2 | COc1ccc(Br)cc1S(=O)(=O)Nc1cccc2ncccc12 | 50.2 µM
3 | O=[N+]([O-])c1ccc(S(=O)(=O)Nc2cnc3ccccc3c2)cc1 | 31.6 µM
4 | O=[N+]([O-])c1cccc(S(=O)(=O)Nc2cccc3ncccc23)c1 | 12.2 µM
5 | Cc1cc(S(=O)(=O)Oc2cccc3cccnc23)c(C)cc1Cl | 41.6 µM
6 | COc1ccc(S(=O)(=O)Nc2cccc3cccnc23)cc1 | 49.2 µM
7 | O=S(=O)(Oc1cccc2cccnc12)c1ccccc1 | 49.5 µM
8 | O=[N+]([O-])c1ccc(S(=O)(=O)Oc2cccc3cccnc23)cc1 | 15.4 µM
9 | O=[N+]([O-])c1cccc(S(=O)(=O)Oc2cccc3cccnc23)c1 | 30.1 µM
10 | O=S(=O)(Nc1cnc2ccccc2c1)c1ccc(Cl)cc1Cl | 8.4 µM
11 | O=[N+]([O-])c1ccccc1S(=O)(=O)Nc1cnc2ccccc2c1 | 8.1 µM
12 | Cc1cc(S(=O)(=O)Nc2cccc3cccnc23)c(C)cc1Cl | 24.5 µM
13 | CCCCCCCCS(=O)(=O)Nc1cnc2ccccc2c1 | 75.1 µM
14 | O=[N+]([O-])c1cccc(S(=O)(=O)Nc2cccc3cccnc23)c1 | 16.1 µM
15 | CCCc1ccc(S(=O)(=O)Oc2cccc3cccnc23)cc1 | 84.4 µM
16 | O=S(=O)(Nc1cccc2ncccc12)c1cc(Cl)ccc1Cl | 4.5 µM
17 | CCCc1ccc(S(=O)(=O)Nc2cccc3ncccc23)cc1 | 75.1 µM
18 | O=S(=O)(Nc1cnc2ccccc2c1)c1cc(Cl)ccc1Cl | 5.5 µM
19 | COc1ccc(-c2nc3ccccc3c(=O)[nH]2)cc1 | 1.1 µM
20 | O=S(=O)(Nc1cccc2cccnc12)c1ccc(Cl)cc1 | 33.4 µM
21 | COc1ccc(Br)cc1S(=O)(=O)Oc1cccc2cccnc12 | 49.5 µM

Row | Structure (SMILES) | IC50
22 | Cc1cc(S(=O)(=O)Nc2cnc3ccccc3c2)c(C)cc1Cl | 34.4 µM
23 | CCCc1ccc(S(=O)(=O)Nc2cccc3cccnc23)cc1 | 70.5 µM
24 | CS(=O)(=O)Nc1cccc2cccnc12 | 48.6 µM
25 | O=S(=O)(Nc1cnc2ccccc2c1)c1ccccc1 | 53.4 µM
26 | O=[N+]([O-])c1ccccc1S(=O)(=O)Oc1cccc2cccnc12 | 6.4 µM
27 | COc1ccc(-c2nc3ccccc3c(=O)[nH]2)cc1O | 2.8 µM
28 | O=[N+]([O-])c1cccc(S(=O)(=O)Nc2cnc3ccccc3c2)c1 | 46.2 µM
29 | O=[N+]([O-])c1ccc(S(=O)(=O)Nc2cccc3cccnc23)cc1 | 31.3 µM
30 | Cc1cc(S(=O)(=O)Nc2cccc3ncccc23)c(C)cc1Cl | 23.5 µM
31 | COc1ccc(S(=O)(=O)Nc2cnc3ccccc3c2)cc1OC | 33.5 to 53.6 µM
32 | COc1ccc(S(=O)(=O)Nc2cccc3cccnc23)cc1OC | 42.6 µM
33 | O=S(=O)(Nc1cccc2cccnc12)c1ccc(Cl)cc1Cl | 6.1 µM
34 | CCCc1ccc(S(=O)(=O)Nc2cnc3ccccc3c2)cc1 | 27.2 µM
35 | COc1ccc(Br)cc1S(=O)(=O)Nc1cccc2cccnc12 | 68.5 µM
36 | COc1ccc(Br)cc1S(=O)(=O)Nc1cnc2ccccc2c1 | 66.5 µM
37 | O=S(=O)(Nc1cccc2ncccc12)c1ccc(Cl)cc1Cl | 2.1 µM
38 | COc1ccc(S(=O)(=O)Nc2cccc3ncccc23)cc1OC | 43.2 µM
39 | O=S(=O)(Nc1cccc2ncccc12)c1cc(Cl)cc(Cl)c1O | 1.6 µM
40 | O=S(=O)(Nc1cccc2cccnc12)c1ccccc1 | 66.4 µM
41 | O=[N+]([O-])c1ccccc1S(=O)(=O)Nc1cccc2cccnc12 | 18.2 µM

Molecular target: T2, Beta-glucuronidase (Bos taurus) (UniProt A3KMY8)
T2 sequence (whole entry): T1 sequence (A3KMY8 whole entry)
Assay: Potency index, ratio of saccharic acid 1,4-lactone IC50 to test compound IC50 for bovine liver beta-glucuronidase

Row | Structure (SMILES) | Ratio IC50
42 | O=S(=O)(Nc1cnc2ccccc2c1)c1ccc(Cl)cc1Cl | 6
43 | O=[N+]([O-])c1cccc(S(=O)(=O)Nc2cccc3cccnc23)c1 | 3
44 | O=S(=O)(Nc1cccc2cccnc12)c1ccc(Cl)cc1Cl | 8
45 | O=S(=O)(Nc1cccc2ncccc12)c1ccc(Cl)cc1Cl | 24
46 | O=S(=O)(Nc1cccc2ncccc12)c1cc(Cl)cc(Cl)c1O | 30
47 | O=[N+]([O-])c1ccccc1S(=O)(=O)Nc1cccc2cccnc12 | 3
